# Where “and” joins values, the source holds several entries; their conditions need not be identical. Identical values can stand only once.
# Experiments:
# [1] = biological target: 5-hydroxytryptamine receptor 1B (Rattus norvegicus, UniProt P28564); experiment: Binding affinity against 5-hydroxytryptamine 1B receptor in rat striatal membranes using [3H]5-HT as radioligand; assay type: cell membranes, Striatum, Membrane
# [2] = biological target: T1, 5-hydroxytryptamine receptor 1A (Rattus norvegicus, UniProt P19327); experiment: Displacement of [3H]8-OH-DPAT from rat hippocampal 5-hydroxytryptamine 1A receptor; assay type: tissue-based, Hippocampus
# T1 sequence (P19327 whole entry): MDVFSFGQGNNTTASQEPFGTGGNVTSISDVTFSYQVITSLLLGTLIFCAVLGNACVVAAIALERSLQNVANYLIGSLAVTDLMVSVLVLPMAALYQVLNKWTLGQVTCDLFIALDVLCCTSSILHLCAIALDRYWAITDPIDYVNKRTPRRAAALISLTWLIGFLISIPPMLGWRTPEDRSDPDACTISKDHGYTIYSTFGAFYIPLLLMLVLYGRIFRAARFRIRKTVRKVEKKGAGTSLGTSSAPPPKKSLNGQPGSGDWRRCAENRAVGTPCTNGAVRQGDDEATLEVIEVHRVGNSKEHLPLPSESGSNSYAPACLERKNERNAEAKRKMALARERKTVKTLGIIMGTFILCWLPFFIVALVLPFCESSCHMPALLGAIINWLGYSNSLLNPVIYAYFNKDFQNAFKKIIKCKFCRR
# [3] = biological target: T1, 5-hydroxytryptamine receptor 1A; experiment: The compound was evaluated for binding affinity against 5-hydroxytryptamine 1A receptor in rat hippocampal membranes using [3H]8-OH-DPAT as radioligand in the presence of 3*10e-5 M GTP gamma S; assay type: cell membranes, Hippocampus
# [4] = biological target: T1, 5-hydroxytryptamine receptor 1A; experiment: The compound was evaluated for binding affinity against 5-hydroxytryptamine 1A receptor in rat hippocampal membranes using [3H]8-OH-DPAT as radioligand in the presence of 1 mM of MnCl2; assay type: cell membranes, Hippocampus
# Sequence of 5-hydroxytryptamine receptor 1B (P28564 whole entry): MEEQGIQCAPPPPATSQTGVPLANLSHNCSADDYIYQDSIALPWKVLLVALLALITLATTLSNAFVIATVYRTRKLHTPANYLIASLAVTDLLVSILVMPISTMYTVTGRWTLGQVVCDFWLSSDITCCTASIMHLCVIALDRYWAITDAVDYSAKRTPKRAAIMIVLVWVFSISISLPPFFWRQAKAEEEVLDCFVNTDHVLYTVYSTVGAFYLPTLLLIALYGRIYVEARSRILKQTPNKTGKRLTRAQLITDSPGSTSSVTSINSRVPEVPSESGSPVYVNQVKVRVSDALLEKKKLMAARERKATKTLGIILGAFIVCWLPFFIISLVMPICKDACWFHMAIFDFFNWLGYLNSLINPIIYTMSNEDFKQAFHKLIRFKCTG
SMILES,Ki [1],Ki [2],Ki [3],Ki [4]
COc1cccc2c1CC(N)CC2 (stereo not drawn),902 nM,158 nM,–,–
COc1ccc(C)c2c1CC(N)CC2 (stereo not drawn),> 10000 nM,436 nM,–,–
CC(C)(C)NCC(O)COc1cccc2c1SCCC2 (stereo not drawn) [TERTATOLOL],–,18.2 nM,37.6 nM,7.71 nM
COc1c2c(cc3ccccc13)CCC(N)C2 (stereo not drawn),23 nM,2520 nM,–,–
CCCN(CCC)C1CCc2cc3ccccc3c(O)c2C1 (stereo not drawn),> 1000 nM,2520 nM,–,–
COc1cc2ccccc2c2c1CC(N)CC2 (stereo not drawn),76.3 nM,1060 nM,–,–
CCCN(CCC)C1CCc2c(C)ccc(OC)c2C1 (stereo not drawn),575 nM,115 nM,–,–
CCCN(CCC)C1CCc2c(C)ccc(O)c2C1 (stereo not drawn),> 10000 nM,18.4 nM and 30.8 nM,81.1 nM,46.6 nM
CCCN(CCC)C1CCc2c(c(OC)cc3ccccc23)C1 (stereo not drawn),6340 nM,1300 nM,–,–
CCCN(CCC)C1CCc2cccc(OC)c2C1 (stereo not drawn),3970 nM,3.05 nM,–,–

# Source: ChEMBL document CHEMBL1127118 (Bioorg Med Chem Lett, 1993)
